# pIC50: −log10 of the molar value.
# Experiments:
# human orexin-2 receptor = molecular target: T1, human orexin-2 receptor (Homo sapiens, UniProt O43614); experiment: Intracellular calcium measurements (FLIPR), orexin receptor antagonistic activity, OX2; assay type: cell-based; settings: CHO cells expressing human orexin-2 receptor, 3 nM orexin-A
# T1 construct: expressed in transfected cells; host or cells: CHO cells (G418 selection)
# T1 sequence (O43614 1-444): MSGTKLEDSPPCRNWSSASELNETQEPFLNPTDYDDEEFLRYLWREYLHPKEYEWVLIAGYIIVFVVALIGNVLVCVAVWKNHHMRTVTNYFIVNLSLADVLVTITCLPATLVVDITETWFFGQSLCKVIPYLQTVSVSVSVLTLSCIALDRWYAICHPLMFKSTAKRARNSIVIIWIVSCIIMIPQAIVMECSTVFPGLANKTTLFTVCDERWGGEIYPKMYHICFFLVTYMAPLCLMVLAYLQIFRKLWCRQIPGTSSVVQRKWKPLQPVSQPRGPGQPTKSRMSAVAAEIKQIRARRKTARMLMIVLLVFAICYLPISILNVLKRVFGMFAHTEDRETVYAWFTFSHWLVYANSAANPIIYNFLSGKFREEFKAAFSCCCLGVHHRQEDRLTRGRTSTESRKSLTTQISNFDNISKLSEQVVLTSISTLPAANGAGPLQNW
# Description: (§1) The orexin receptor antagonistic activity of the compounds of formula (I) is determined in accordance with the following experimental method.
# (§2) Intracellular Calcium Measurements:
# (§3) Chinese hamster ovary (CHO) cells expressing the human orexin-1 receptor and the human orexin-2 receptor, respectively, are grown in culture medium (Ham F-12 with L-Glutamine) containing 300 μg/ml G418, 100 U/ml penicillin, 100 μg/ml streptomycin and 10% heat inactivated fetal calf serum (FCS). The cells are seeded at 20,000 cells/well into 384-well black clear bottom sterile plates (Greiner). The seeded plates are incubated overnight at 37° C. in 5% CO2.
# (§4) Human orexin-A as an agonist is prepared as 1 mM stock solution in MeOH:water (1:1), diluted in HBSS containing 0.1% bovine serum albumin (BSA), NaHCO3: 0.375 g/l and 20 mM HEPES for use in the assay at a final concentration of 3 nM.
# (§5) Antagonists are prepared as 10 mM stock solution in DMSO, then diluted in 384-well plates using DMSO followed by a transfer of the dilutions into in HBSS containing 0.1% bovine serum albumin (BSA), NaHCO3: 0.375 g/l and 20 mM HEPES. On the day of the assay, 50 μl of staining buffer (HBSS containing 1% FCS, 20 mM HEPES, NaHCO3: 0.375 g/l, 5 mM probenecid (Sigma) and 3 μM of the fluorescent calcium indicator fluo-4 AM (1 mM stock solution in DMSO, containing 10% pluronic) is added to each well. The 384-well cell-plates are incubated for 50 min at 37° C. in 5% CO2 followed by equilibration at rt for 30-120 min before measurement.
# (§6) Within the Fluorescent Imaging Plate Reader (FLIPR2 or FLIPR Tetra, Molecular Devices), antagonists are added to the plate in a volume of […], incubated for 10 min and finally 10 μl/well of agonist is added. Fluorescence is measured for each well at 1 second intervals, and the height of each fluorescence peak is compared to the height of the fluorescence peak induced by 3 nM orexin-A with vehicle in place of antagonist. For each antagonist, the IC50 value (the concentration of compound needed to inhibit 50% of the agonistic response) is determined. With the FLIPR Tetra, non-optimized and optimized conditions were used. Optimized conditions were achieved by adjustment of pipetting speed and cell splitting regime. The calculated IC50 values of the compounds may fluctuate depending on the daily cellular assay performance. Fluctuations of this kind are known to those skilled in the art.
# human orexin-1 receptor = molecular target: T2, human orexin-1 receptor (Homo sapiens, UniProt O43613); experiment: Intracellular calcium measurements (FLIPR), orexin receptor antagonistic activity, OX1; assay type: cell-based; settings: CHO cells expressing human orexin-1 receptor, 3 nM orexin-A
# T2 construct: expressed in transfected cells; host or cells: CHO cells (G418 selection)
# T2 sequence (O43613 1-425): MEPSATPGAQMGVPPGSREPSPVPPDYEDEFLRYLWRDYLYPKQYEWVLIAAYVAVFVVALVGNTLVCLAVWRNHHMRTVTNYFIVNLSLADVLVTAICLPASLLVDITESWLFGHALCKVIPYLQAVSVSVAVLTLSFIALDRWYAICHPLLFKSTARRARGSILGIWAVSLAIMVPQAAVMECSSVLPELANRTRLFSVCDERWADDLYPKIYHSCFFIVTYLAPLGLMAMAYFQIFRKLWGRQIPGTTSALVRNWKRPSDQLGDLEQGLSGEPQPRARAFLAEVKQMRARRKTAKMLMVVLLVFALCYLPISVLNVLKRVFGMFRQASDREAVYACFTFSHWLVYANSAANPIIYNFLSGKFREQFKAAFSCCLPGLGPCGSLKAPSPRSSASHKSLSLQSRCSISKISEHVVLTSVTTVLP
# Description: as §1, §2, §3, §4, §5, §6
# [1] = FLIPR Tetra, non-optimized conditions
# [2] = FLIPR Tetra, optimized conditions
pIC50 (human orexin-2 receptor; [1]),pIC50 (human orexin-1 receptor; [1]),pIC50 (human orexin-2 receptor; FLIPR2),pIC50 (human orexin-1 receptor; FLIPR2),Structure (SMILES),further results
7.70,7.77,,,"Cc1nc2sccn2c1C(=O)NC[C@@H]1[C@H]2CCC[C@H]2CN1C(=O)c1nc(N)sc1-c1cccc(F)c1 [Example 70, 6-Methyl-imidazo[2,1-b]thiazole-5-carboxylic acid-(1S,2S,5R)-{3-[2-amino-5-(3-fluoro-phenyl)-thiazole-4-carbonyl]-3-aza-bicyclo[3.3.0]oct-2-ylmethyl}-amide]",
7.68,7.80,,,"Cc1nc2sccn2c1C(=O)NC[C@@H]1[C@H]2CCC[C@H]2CN1C(=O)c1ccccc1-c1ccccc1 [Example 60, 6-Methyl-imidazo[2,1-b]thiazole-5-carboxylic acid-(1S,2S,5R)-[3-(biphenyl-2-carbonyl)-3-aza-bicyclo[3.3.0]oct-2-ylmethyl]-amide]",
,,7.32,7.62,"Cc1cccc(-c2sc(C)nc2C(=O)N2C[C@@H]3CC(C)C[C@@H]3[C@H]2CNC(=O)c2cc(Cl)ccn2)c1 (stereo partly drawn) [Example 25, 4-Chloro-pyridine-2-carboxylic acid-(1S,2S,5R)-[7-methyl-3-(2-methyl-5-m-tolyl-thiazole-4-carbonyl)-3-aza-bicyclo[3.3.0]oct-2-ylmethyl]-amide]",
6.58,7.36,,,"Cc1nc(C(=O)N2C[C@@H]3CC(C)C[C@@H]3[C@H]2CNC(=O)c2c(C)nc3sccn23)c(-c2cccc(C(F)(F)F)c2)s1 (stereo partly drawn) [Example 36, 6-Methyl-imidazo[2,1-b]thiazole-5-carboxylic acid-(1S,2S,5R)-{7-methyl-3-[2-methyl-5-(3-trifluoromethyl-phenyl)-thiazole-4-carbonyl]-3-aza-bicyclo[3.3.0]oct-2-ylmethyl}-amide]",
,,8.05,8.15,"Cc1cccc(-c2sc(C)nc2C(=O)N2C[C@@H]3CC(C)C[C@@H]3[C@H]2CNC(=O)c2cnc3sccn23)c1 (stereo partly drawn) [Example 11, Imidazo[2,1-b]thiazole-5-carboxylic acid-(1S,2S,5R)-[7-methyl-3-(2-methyl-5-m-tolyl-thiazole-4-carbonyl)-3-aza-bicyclo[3.3.0]oct-2-ylmethyl]-amide]",
,,,,"Cc1cccc(-c2sc(C)nc2C(=O)N2C[C@@H]3CC(F)(F)C[C@@H]3[C@H]2CNC(=O)c2cccc3ncsc23)c1 [Example 81, Benzothiazole-7-carboxylic acid-(1S,2S,5R)-[7,7-difluoro-3-(2-methyl-5-m-tolyl-thiazole-4-carbonyl)-3-aza-bicyclo[3.3.0]oct-2-ylmethyl]-amide]",pIC50 (human orexin-2 receptor; [2]): 8.00; pIC50 (human orexin-1 receptor; [2]): 8.22
7.03,7.48,,,"Cc1nc(C(=O)N2C[C@@H]3CC(C)C[C@@H]3[C@H]2CNC(=O)c2c(C)nc3sccn23)c(-c2ccc(F)c(F)c2)s1 (stereo partly drawn) [Example 51, 6-Methyl-imidazo[2,1-b]thiazole-5-carboxylic acid-(1S,2S,5R)-{3-[5-(3,4-difluoro-phenyl)-2-methyl-thiazole-4-carbonyl]-7-methyl-3-aza-bicyclo[3.3.0]oct-2-ylmethyl}-amide]",
,,,,"Cc1cccc(-c2sc(C)nc2C(=O)N2C[C@@H]3CC(F)(F)C[C@@H]3[C@H]2CNC(=O)c2c(C)nc3sccn23)c1 [Example 85, 6-Methyl-imidazo[2,1-b]-thiazole-5-carboxylic acid-(1S,2S,5R)-[7,7-difluoro-3-(2-methyl-5-m-tolyl-thiazole-4-carbonyl)-3-aza-bicyclo[3.3.0]oct-2-ylmethyl]-amide]",pIC50 (human orexin-2 receptor; [2]): 7.74; pIC50 (human orexin-1 receptor; [2]): 8.15
,,7.89,7.92,"Cc1cccc(-c2sc(C)nc2C(=O)N2C[C@@H]3CC(C)C[C@@H]3[C@H]2CNC(=O)c2noc3ccccc23)c1 (stereo partly drawn) [Example 7, Benzo[d]isoxazole-3-carboxylic acid-(1S,2S,5R)-[7-methyl-3-(2-methyl-5-m-tolyl-thiazole-4-carbonyl)-3-aza-bicyclo[3.3.0]oct-2-ylmethyl]-amide]",
,,7.33,7.11,"Cc1cccc(C(=O)NC[C@@H]2[C@H]3CC(C)C[C@H]3CN2C(=O)c2nc(C)sc2-c2cccc(C)c2)c1 (stereo partly drawn) [Example 19, (1S,2S,5R)-3-Methyl-N-[7-methyl-3-(2-methyl-5-m-tolyl-thiazole-4-carbonyl)-3-aza-bicyclo[3.3.0]oct-2-ylmethyl]-benzamide]",
,,6.94,7.23,"Cc1cccc(-c2sc(C)nc2C(=O)N2C[C@@H]3CC(C)C[C@@H]3[C@H]2CNC(=O)c2c(C)noc2C)c1 (stereo partly drawn) [Example 6, 3,5-Dimethyl-isoxazole-4-carboxylic acid-(1S,2S,5R)-[7-methyl-3-(2-methyl-5-m-tolyl-thiazole-4-carbonyl)-3-aza-bicyclo[3.3.0]-2-ylmethyl]-amide]",
,,,,"Cc1cccc(-c2sc(C)nc2C(=O)N2C[C@@H]3CC(F)(F)C[C@@H]3[C@H]2CNC(=O)c2cccc3c2CCO3)c1 [Example 79, 2,3-Dihydro-benzofuran-4-carboxylic acid-(1S,2S,5R)-[7,7-difluoro-3-(2-methyl-5-m-tolyl-thiazole-4-carbonyl)-3-aza-bicyclo[3.3.0]oct-2-ylmethyl]-amide]",pIC50 (human orexin-2 receptor; [2]): 7.70; pIC50 (human orexin-1 receptor; [2]): 8.10
7.77,8.10,,,"COc1cccc(-c2sc(C)nc2C(=O)N2C[C@@H]3CCC[C@@H]3[C@H]2CNC(=O)c2c(C)nc3sccn23)c1 [Example 33, 6-Methyl-imidazo[2,1-b]thiazole-5-carboxylic acid-(1S,2S,5R)-{3-[5-(3-methoxy-phenyl)-2-methyl-thiazole-4-carbonyl]-3-aza-bicyclo[3.3.0]oct-2-ylmethyl}-amide]",

# Source: US8106215B2, “3-aza-bicyclo[3.3.0]octane compounds” (Actelion Pharmaceuticals Ltd., priority 2007, dated 2012)
